Measured values: patent US20250084069A1, “GERALEXIN AND USES THEREOF FOR THE TREATMENT OF RETINAL DEGENERATIVE DISEASES” (INSTITUT NATIONAL DE LA SANTÉ ET DE LA RECHERCHE MÉDICALE, priority 2022, published 2025)

Key:
[1] = system: cones of cone-enriched cultures from chicken embryo; test: Cone survival in cone-enriched cultures from chicken embryo (live/dead assay); format: cell-based
Text: FIG. 1: Identification of an extract from Uvaria chamae protecting cones by high content screening of 800 extracts from 200 medicinal plants using cone-enriched cultures from chicken embryo. A. The set represents a total of 12,800 tests. a: methanol polyamide, b: ethyl acetate, c: depleted ethyl acetate, d: depleted methanol. The figure gives an overview of the screening. […] C. Chromatogram of the fractionation by HPLC of Uvaria chamae the fraction Ucac3. The eight fractions (Ucac3F 1-8) are indicated by grey/white shading. D. Test of the protective activity on cones of the Ucac3 fractions 1-8. E. Purification scheme. F. Chromatographic profile of purified Geralexin. G. Structure of Geralexin (C37H66O7).
(§1) The therapeutic molecule, the acetogenin Geralexin (C37H66O7) (FIG. 1G) was purified to homogeneity from 100 kg of leaves of Uvaria chamae, a medicinal plant. […] We have fractionated Uvaria chamae extract by 7 steps of chromatography and characterized the molecule that we called Geralexin (FIG. 1E). […] Uc acts as RdCVF by stimulating aerobic glycolysis. […] The hydrophobicity of acetogenins allows their penetration into cones where Geralexin could bind and activate aerobic glycolysis (FIG. 2F-H). We search for genes encoding glycolytic enzymes with an expression profile indicating possible function in photoreceptors in our own web database KBaSS. […] PFKFB2 is a bifunctional protein with a N-terminal kinase domain that converts fructose 6 phosphate (F6P) into fructose 2,6 biphosphate (F26BP), an allosteric activator of phosphofructokinase (PFK), which catalyzes the rate-limiting step of glycolysis. […] We have analyzed the metabolome of the cone-enriched cultures exposed to Uc with the platform MetaToul (Toulouse). […] Our hypothesis is that Geralexin could be a treatment, alone or in addition to other interventions for dry AMD by preventing cone outer segment shortening and maintaining central vision.

[2] = system: cones of rd1 retinal explants; test: Cone protection on cultured retinal explants of the rd1 mouse; format: cell-based
[3] = system: glucose uptake by cones; test: Uptake of NBDG (fluorescent deoxyglucose derivative) in cone-enriched cultured cells; format: cell-based, chicken
Description: FIG. 2: Geralexin protects cones by stimulating aerobic glycolysis. A. Analysis of the effect of cone cell morphology in cone-enriched cultures by Geralexin (UcaC3F8f3). Cells are labeled with calcein AM. […] C. […] G. Comparative analysis of the protection of Geralexin (Uc: G3) on cone-enriched cultures in 15 versus 30 mM glucose. H. Ratio Geralexin+/no Geralexin.
The therapeutic molecule, the acetogenin Geralexin (C37H66O7) (FIG. 1G) was purified to homogeneity from 100 kg of leaves of Uvaria chamae, a medicinal plant. […] We have fractionated Uvaria chamae extract by 7 steps of chromatography and characterized the molecule that we called Geralexin (FIG. 1E). […] Uc acts as RdCVF by stimulating aerobic glycolysis. […] The hydrophobicity of acetogenins allows their penetration into cones where Geralexin could bind and activate aerobic glycolysis (FIG. 2F-H). We search for genes encoding glycolytic enzymes with an expression profile indicating possible function in photoreceptors in our own web database KBaSS. […] PFKFB2 is a bifunctional protein with a N-terminal kinase domain that converts fructose 6 phosphate (F6P) into fructose 2,6 biphosphate (F26BP), an allosteric activator of phosphofructokinase (PFK), which catalyzes the rate-limiting step of glycolysis. […] We have analyzed the metabolome of the cone-enriched cultures exposed to Uc with the platform MetaToul (Toulouse). […]

[4] = system: PFKFB2 mRNA; test: PFKFB2 mRNA expression by cones of cone-enriched culture, quantitative RT-PCR; format: cell-based, chicken
Text: (§2) G6P: glucose-6-phosphate, F6P; fructose-6-phosphate, F16BP: fructose-1,6-biphosphate, G3P: glycerol-3-phosphate, 2/3PG: 2- and 3-phosphoglycerate and PEP: phosphoenol pyruvate,
as §1

[5] = system: phosphofructokinase (PFK); test: Metabolomic analysis of cone-enriched cultures (MetaToul platform); format: cell-based, chicken; conditions: by metabolomic analysis
Text: as §2, §1

For `CCCCCCCCCC1OC1C1CCC(/C=C\C=C\CCC(O)C(O)CCC(O)CCCCCCCCCCC(=O)O)O1` (stereo not shown) [Geralexin], the “protective effect on cones after silencing BSG1” value ([1]; cone-enriched culture after electroporation of a micro RNA targeting BSG1) was “Absence of reduction of the protective effect”, the “cone survival / protection of cones” value ([1]; cone-enriched cultures from chicken embryo) was “stimulates aerobic glycolysis and cone survival” and the “effect of oxamate on the cone survival effect” value ([1]; cone-enriched cultures, with lactate dehydrogenase inhibitor oxamate) was “Reduction of the protection of cone”. For the same compound, the “protection of cones / cone survival” value [2] was “Protection of cones”, the “glucose (NBDG) uptake by cones” value [3] was “Increase of the uptake of NBDG” and the “expression of PFKFB2 mRNA” value [4] was “Increase expression of PFKFB2 mRNA”. The “phosphofructokinase (PFK) activity” value [5] was “Increase phosphofructokinase (PFK) activity”.
